For this experiment, the system named is Long Evans rats. The experiment is described as follows: Morphine self-administration, extinction and cue-induced reinstatement (opioid seeking). In kind it is in vivo. As to the method:
Adult (8 to 10 weeks old at the beginning of the experiments) wild-type male and female Long Evans rats (250-350g) were used. Animals were group housed prior to jugular vein catheter implant surgery with two to three animals per cage on a 12/12 hours dark/light cycle (lights on at 7:00 AM). Rats were acclimated to the animal facility holding rooms for at least 7 days before any manipulation. After catheter implantation, animals were single housed to prevent damage to the harnesses. All experiments were performed during the light cycle. Rats received food and water ad libitum until 2 days prior to starting the behavioral studies, when food restriction (16 g of rat chow per day) started and continued until the end of the experiments.
All surgeries were performed under isoflurane (2.5/3 MAC) anesthesia using sterile aseptic techniques. For intravenous (IV) self-administration (SA), animals were implanted with sterile catheters in the right jugular vein and connected to a harness placed over the torso. The harness allowed for minimal stress while connecting and disconnecting the animal from infusion lines. The catheter was kept patent by daily infusions of gentamicin mixture (1.33 mg/ml).
Equipment: Rat self-administration was conducted using operant-conditioning chambers (Med Associates) equipped with two retractable levers with a food magazine connected to a food pellet dispenser between them. Two cue lights were positioned above the levers, and one house light was positioned on the top left-hand wall. During self-administration sessions both levers (correct and incorrect lever) were extended out with white cue light turned on only above the correct lever. […]
All experiments were performed at least twice, including each treatment condition to prevent an unspecific day/condition effect. […] All data are expressed as mean±SEM. […] After assessing the normality of sample data using Shapiro-Wilk test, statistical significance was determined by two-way repeated-measures ANOVA followed by two-tailed Sidak post hoc test. Data was analyzed using GraphPad Prism 8.1.0.

“Also recorded” adds a separate entry of the source.

As to `CCCN(CCC)S(=O)(=O)c1ccc(C(O)(C(F)(F)F)C(F)(F)F)cc1` [Compound 1, 4-(1,1,1,3,3,3-hexafluoro-2-hydroxypropan-2-yl)-N,N-dipropylbenzenesulfonamide], the “Extinction of morphine seeking behaviour (lever pressing)” value (0.5 mg/kg i.p. 1 hour prior to each extinction session, vs saline) is on record as “did not show a reduction in time required for extinction; also recorded: no difference was observed”. For the same compound, the “Lever presses (morphine seeking) during reinstatement, all animals” value (0.5 mg/kg i.p. during extinction, before reinstatement, or both, vs saline) is “significant reduction in the number of lever presses; also recorded: rescued”. Moreover, the “Lever presses (morphine seeking) during reinstatement, female rats” value (0.5 mg/kg i.p. during extinction, first day of reinstatement, or both, females) is listed as “decreased the number of lever presses; also recorded: reversed”.

These data come from patent publication US20240166596A1, “SULFAMOYL BENZENE DERIVATIVES AND USES THEREOF” (AphioTx Inc., priority 2021, published 2024).
